Data as given in ChEMBL document CHEMBL4387732, “Capsaicin-like analogue induced selective apoptosis in A2058 melanoma cells: Design, synthesis and molecular modeling” (Bioorg Med Chem, 2019).
Calls of active or inactive are those of the source. No cut-off for these calls is given here.

Columns and labels:
[1] = biological target: T1, Transient receptor potential cation channel subfamily V member 6 (Homo sapiens) (UniProt Q9H1D0); test: Antagonist activity at human TRPV6 expressed in human HEK293 cells assessed as reduction in Ca2+ transport at 2.5 uM incubated for 5 mins by calcium-5 fluorescence dye-based FLIPR assay; type: cell-based
T1 sequence (whole entry): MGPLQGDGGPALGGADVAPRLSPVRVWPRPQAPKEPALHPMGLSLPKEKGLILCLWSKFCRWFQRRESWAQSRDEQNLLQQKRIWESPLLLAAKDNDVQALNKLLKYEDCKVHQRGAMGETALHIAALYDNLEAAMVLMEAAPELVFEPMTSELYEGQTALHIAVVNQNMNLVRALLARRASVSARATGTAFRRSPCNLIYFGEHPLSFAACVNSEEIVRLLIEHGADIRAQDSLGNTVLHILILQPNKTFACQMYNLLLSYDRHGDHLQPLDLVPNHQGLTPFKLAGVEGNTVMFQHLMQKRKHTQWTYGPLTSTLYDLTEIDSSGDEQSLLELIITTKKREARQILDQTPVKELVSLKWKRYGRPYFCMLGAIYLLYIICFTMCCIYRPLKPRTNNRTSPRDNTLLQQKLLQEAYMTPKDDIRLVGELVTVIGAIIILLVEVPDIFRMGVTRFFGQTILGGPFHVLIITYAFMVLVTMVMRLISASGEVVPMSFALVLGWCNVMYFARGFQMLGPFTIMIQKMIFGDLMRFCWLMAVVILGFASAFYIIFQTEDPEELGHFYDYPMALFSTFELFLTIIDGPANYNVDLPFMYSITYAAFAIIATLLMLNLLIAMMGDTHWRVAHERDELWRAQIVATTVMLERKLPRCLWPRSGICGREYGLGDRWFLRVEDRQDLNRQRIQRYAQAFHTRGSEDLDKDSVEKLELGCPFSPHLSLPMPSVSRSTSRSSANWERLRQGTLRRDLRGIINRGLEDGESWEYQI

[2] = Selectivity index, ratio of IC50 for human T75 cells to IC50 for human A2058 cells
SK-MEL-25 = test: Cytotoxicity against human SK-MEL-25 cells assessed as decrease in cell viability incubated for 24 hrs by MTT assay; type: functional, cell-based; conditions: SK-MEL-25, 24 h
A2058 [3] = test: Cytotoxicity against human A2058 cells assessed as decrease in cell viability incubated for 24 hrs by MTT assay; type: functional, cell-based; conditions: A2058, 24 h
MCF7 = test: Cytotoxicity against human MCF7 cells assessed as decrease in cell viability incubated for 24 hrs by MTT assay; type: functional, cell-based
HeLa = test: Cytotoxicity against human HeLa cells assessed as decrease in cell viability incubated for 24 hrs by MTT assay; type: functional, cell-based
U-87 MG = test: Cytotoxicity against human U87 cells assessed as decrease in cell viability incubated for 24 hrs by MTT assay; type: functional, cell-based, U-87MG ATCC
B16-F10 [4] = test: Cytotoxicity against mouse B16F10 cells assessed as decrease in cell viability incubated for 24 hrs by MTT assay; type: functional, cell-based; conditions: B16-F10, 24 h
[5] = Cytotoxicity against human T75 cells assessed as decrease in cell viability incubated for 24 hrs by MTT assay; type: cell-based
HEK-293T = test: Effect on Ca2+ transport in human HEK293T cells incubated for 5 mins by calcium-5 fluorescence dye-based FLIPR assay; type: functional, cell-based
[6] = biological target: T1, Transient receptor potential cation channel subfamily V member 6 (Homo sapiens); test: Agonist activity at human TRPV6 expressed in human HEK293 cells assessed as increase in Ca2+ transport at 100 nM incubated for 5 mins by calcium-5 fluorescence dye-based FLIPR assay; type: cell-based
Mus musculus = test: In-vivo activation of TRPV1 receptor in Swiss mouse assessed as induction of nociception by measuring paw flinching/licking response at 5.2 nmol/paw administrated via intraplantar route and measured for first 5 mins post treatment; type: functional, organism-based
B16-F10 [7] = test: Cell cycle arrest in mouse B16F10 cells assessed as variation in subG0/G1 population at 12.5 to 50 uM incubated for 24 hrs by propidium iodide staining-based flow cytometric analysis; type: functional
A2058 [8] = test: Cell cycle arrest in human A2058 cells assessed as accumulation of cells in subG0/G1 phase at 12.5 to 50 uM incubated for 24 hrs by propidium iodide staining-based flow cytometric analysis; type: functional
B16-F10 [9] = test: Cell cycle arrest in mouse B16F10 cells assessed as increase the G0/G1 phase incubated for 24 hrs by propidium iodide staining-based flow cytometric analysis; type: functional
A2058 [10] = test: Induction of apoptosis in human A2058 cells assessed as increase in cleaved caspase 3 expression level incubated for 6 hrs by Western blot analysis; type: functional, cell-based
A2058 [11] = test: Cytotoxicity against human A2058 cells assessed as alteration in cell morphology incubated for 24 hrs by microscopic method; type: functional, cell-based
A2058 [12] = test: Cytotoxicity against human A2058 cells assessed as loss of cell adhesion incubated for 24 hrs by microscopic method; type: functional, cell-based
A2058 [13] = test: Cytotoxicity against human A2058 cells assessed as induction of withdrawal of cytoplasm incubated for 24 hrs by microscopic method; type: functional, cell-based
A2058 [14] = test: Cytotoxicity against human A2058 cells assessed as loss of refringence incubated for 24 hrs by microscopic method; type: functional, cell-based
A2058 [15] = test: Cytotoxicity against human A2058 cells assessed as marked formation of apoptotic bodies incubated for 24 hrs by microscopic method; type: functional, cell-based
B16-F10 [16] = test: Cytotoxicity against mouse B16F10 cells assessed as cell cycle arrest incubated for 24 hrs by microscopic method; type: functional, cell-based
A2058 [17] = test: Cell cycle arrest in human A2058 cells assessed as accumulation of cells in G0/G1 phase incubated for 24 hrs by propidium iodide staining-based flow cytometric analysis; type: functional
A2058 [18] = test: Induction of apoptosis in human A2058 cells assessed as ratio of beta-actin to B-RAF expression incubated for 1 hrs by Western blot analysis; type: functional
A2058 [19] = test: Induction of apoptosis in human A2058 cells assessed as ratio of beta-actin to B-RAF expression incubated for 3 hrs by Western blot analysis; type: functional
A2058 [20] = test: Induction of apoptosis in human A2058 cells assessed as ratio of beta-actin to B-RAF expression incubated for 6 hrs by Western blot analysis; type: functional
A2058 [21] = test: Induction of apoptosis in human A2058 cells assessed as ratio of beta-actin to C-RAF expression incubated for 1 hrs by Western blot analysis; type: functional
A2058 [22] = test: Induction of apoptosis in human A2058 cells assessed as ratio of beta-actin to C-RAF expression incubated for 3 hrs by Western blot analysis; type: functional
A2058 [23] = test: Induction of apoptosis in human A2058 cells assessed as ratio of beta-actin to C-RAF expression incubated for 6 hrs by Western blot analysis; type: functional
A2058 [24] = test: Induction of apoptosis in human A2058 cells assessed as ratio of beta-actin to BCL-XL expression incubated for 1 hrs by Western blot analysis; type: functional
A2058 [25] = test: Induction of apoptosis in human A2058 cells assessed as ratio of beta-actin to BCL-XL expression incubated for 3 hrs by Western blot analysis; type: functional
A2058 [26] = test: Induction of apoptosis in human A2058 cells assessed as ratio of beta-actin to BCL-XL expression incubated for 6 hrs by Western blot analysis; type: functional
A2058 [27] = test: Induction of apoptosis in human A2058 cells assessed as ratio of beta-actin to caspase 3 expression incubated for 1 hrs by Western blot analysis; type: functional
A2058 [28] = test: Induction of apoptosis in human A2058 cells assessed as ratio of beta-actin to caspase 3 expression incubated for 3 hrs by Western blot analysis; type: functional
A2058 [29] = test: Induction of apoptosis in human A2058 cells assessed as ratio of beta-actin to caspase 3 expression incubated for 6 hrs by Western blot analysis; type: functional
[30] = biological target: T2, Transient receptor potential cation channel subfamily V member 1 (Homo sapiens, UniProt Q8NER1); test: Agonist activity at human TRPV1 expressed in HEK293T cells assessed as increase in Ca2+ transport incubated for 5 mins by calcium-5 fluorescence dye-based FLIPR assay; type: cell-based
[31] = biological target: T2, Transient receptor potential cation channel subfamily V member 1; test: Agonist activity at human TRPV1 expressed in human HEK293T cells assessed as increase in Ca2+ transport at 10 uM incubated for 5 mins in presence of TRPV1 antagonist capsazepine by calcium-5 fluorescence dye-based FLIPR assay; type: cell-based
[32] = biological target: T1, Transient receptor potential cation channel subfamily V member 6 (Homo sapiens); test: Agonist activity at human TRPV6 expressed in human HEK293 cells assessed as increase in Ca2+ transport at 50 uM incubated for 5 mins by calcium-5 fluorescence dye-based FLIPR assay; type: cell-based

T2 sequence (Q8NER1 whole entry): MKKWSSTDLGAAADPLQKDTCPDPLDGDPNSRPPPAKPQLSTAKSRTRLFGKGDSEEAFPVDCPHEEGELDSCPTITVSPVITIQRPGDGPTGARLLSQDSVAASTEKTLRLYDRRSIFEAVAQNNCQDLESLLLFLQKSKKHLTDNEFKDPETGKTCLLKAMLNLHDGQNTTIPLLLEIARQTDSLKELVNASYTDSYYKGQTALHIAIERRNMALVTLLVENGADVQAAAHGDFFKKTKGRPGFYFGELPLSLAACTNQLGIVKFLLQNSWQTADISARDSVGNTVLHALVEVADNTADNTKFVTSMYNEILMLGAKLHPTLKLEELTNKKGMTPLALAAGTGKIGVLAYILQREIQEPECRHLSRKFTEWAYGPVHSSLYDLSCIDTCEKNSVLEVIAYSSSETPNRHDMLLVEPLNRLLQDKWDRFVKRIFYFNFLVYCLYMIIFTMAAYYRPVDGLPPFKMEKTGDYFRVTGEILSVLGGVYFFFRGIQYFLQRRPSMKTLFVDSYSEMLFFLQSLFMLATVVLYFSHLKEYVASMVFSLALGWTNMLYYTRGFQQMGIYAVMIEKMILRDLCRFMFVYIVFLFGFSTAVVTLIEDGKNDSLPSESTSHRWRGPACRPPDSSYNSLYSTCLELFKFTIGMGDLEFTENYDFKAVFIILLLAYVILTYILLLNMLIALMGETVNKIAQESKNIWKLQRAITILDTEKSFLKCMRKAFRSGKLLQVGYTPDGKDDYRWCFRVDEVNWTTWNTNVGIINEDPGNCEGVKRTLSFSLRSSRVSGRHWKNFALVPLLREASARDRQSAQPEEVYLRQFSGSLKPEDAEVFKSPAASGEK

## Cc1cccc([C@H]2CC[C@@H](N3CCN(c4cccnc4)CC3)CC2)c1
[1]
  inhibition: Active

## COc1cc(CNC(=O)Nc2ccc([N+](=O)[O-])cc2)ccc1O
[2]
  Ratio IC50: >1.1
SK-MEL-25
  IC50: 98.7 µM
A2058 [3]
  IC50: 98.2 µM
MCF7
  Activity: inactive
HeLa
  Activity: inactive
U-87 MG
  IC50: 98.5 µM
B16-F10 [4]
  IC50: > 100 µM
[5]
  IC50: > 100 µM

## COc1cc(CNC(=O)CCCC/C=C/C(C)C)ccc1O [CAPSAICIN]
SK-MEL-25
  IC50: > 100 µM
A2058 [3]
  IC50: > 100 µM
U-87 MG
  IC50: > 100 µM
B16-F10 [4]
  IC50: > 100 µM
[5]
  IC50: > 100 µM
HEK-293T
  Activity: inactive
[6]
  Activity: inactive
Mus musculus
  Activity: Active

## COc1cc(CNC(=O)Nc2ccc(Cl)cc2)ccc1O
[2]
  Ratio IC50: >1.18
SK-MEL-25
  IC50: 90.5 µM
A2058 [3]
  IC50: 84.5 µM
MCF7
  Activity: inactive
HeLa
  Activity: inactive
U-87 MG
  IC50: 92.5 µM
B16-F10 [4]
  IC50: > 100 µM
[5]
  IC50: > 100 µM

## COc1ccc(NC(=O)NCc2ccc(O)c(OC)c2)cc1
[2]
  Ratio IC50: >1.08
SK-MEL-25
  IC50: 91.8 µM
A2058 [3]
  IC50: 92.5 µM
MCF7
  Activity: inactive
HeLa
  Activity: inactive
U-87 MG
  IC50: > 100 µM
B16-F10 [4]
  IC50: > 100 µM
[5]
  IC50: > 100 µM

## CCCCCCNC(=S)NCc1ccc2c(c1)OCO2
B16-F10 [7]
  Activity: inactive
[2]
  Ratio IC50: >1.8
A2058 [8]
  Activity: Active
B16-F10 [9]
  Activity: Dose-dependent effect
A2058 [10]
  Activity: Active
SK-MEL-25
  IC50: 67.2 µM
A2058 [3]
  IC50: 55.2 µM
MCF7
  Activity: inactive
HeLa
  Activity: inactive
U-87 MG
  IC50: 87 µM
B16-F10 [4]
  IC50: > 100 µM
[5]
  IC50: > 100 µM
A2058 [11]
  Activity: Active
A2058 [12]
  Activity: Active
A2058 [13]
  Activity: Active
A2058 [14]
  Activity: Active
A2058 [15]
  Activity: Active
B16-F10 [16]
  Activity: Active
A2058 [17]
  Activity: Dose-dependent effect
A2058 [18]
  Ratio: 0.45
A2058 [19]
  Ratio: 0.48
A2058 [20]
  Ratio: 0.52
A2058 [21]
  Ratio: 0.6
A2058 [22]
  Ratio: 0.49
A2058 [23]
  Ratio: 0.32
A2058 [24]
  Ratio: 1.22
A2058 [25]
  Ratio: 1.2
A2058 [26]
  Ratio: 0.6
A2058 [27]
  Ratio: 1.18
A2058 [28]
  Ratio: 1.11
A2058 [29]
  Ratio: 0.6
[30]
  EC50: 4.62 µM
HEK-293T
  Activity: inactive
[31]
  Activity: inactive
[32]
  Activity: inactive
Mus musculus
  Activity: inactive
